pIC50: −log10 of the molar value.
Columns and labels:
[1] = target: T1, human SERT (Homo sapiens, UniProt P31645); assay: SERT uptake inhibition assay in HEK293 cells ([3H]5-HT); type: cell-based
T1 construct: expressed in transfected cells
Procedure: Human embryonic kidney 293 (HEK293) cells stably expressing the human isoforms of either DAT or SERT were maintained in Dulbecco’s Modified Eagle Medium (DMEM), supplemented with 10% fetal calf serum at a subconfluent state in humidified atmosphere (5% CO2, 37 °C).
Uptake inhibition assays were performed as described earlier. Briefly, HEK293 cells stably expressing human SERT or DAT were seeded onto poly- D-lysine (PDL) coated 96-well plates (40,000 cells well^−1) the day before an experiment. Prior to the uptake inhibition assay, DMEM was replaced with Krebs-HEPES buffer (KHB, 25 mM HEPES, 120 mM NaCl, 5 mM KCl, 1.2 mM CaCl2, 1.2 mM MgSO4, and 5 mM D-glucose, pH 7.3) and the cells were preincubated with test drugs for 5 min at room temperature. Uptake assays were initiated by adding 20 nM [^3H]MPP^+ to DAT cells or 100 nM [^3H]5-HT to SERT cells. After 180 s (DAT) or 60 s (SERT), the tritiated substrate was removed by aspiration. Cells were washed once with ice-cold KHB, then lysed in 1% sodium dodecyl sulfate (SDS) and subjected to liquid scintillation counting to quantify tritium accumulated in each sample. Non-specific uptake was determined in the presence of mazindol (1 µM) for DAT or paroxetine (1 µM) for SERT and subtracted throughout.

[2] = tested on: VMATs; assay: VMAT uptake inhibition assay in PC12 cells; type: cell-based; details: all at 30 µM, relative to inhibition by 30 µM reserpine
Procedure: VMAT uptake inhibition assays were conducted as previously described, with some modifications. In brief, […] PC12 cells per well were seeded in 24-well plates the day before experimentation. The cells were pretreated with 100 nM nisoxetine and mazindol to inhibit non-specific binding. PC12 cells were then preincubated with 200 µM digitonin to permeabilize membranes and were kept at room temperature on a plate shaker at low velocity for 30 min. Cells were treated with test drugs and shaken for another 10 min. Tritiated substrate (0.05 µM [^3H]5-HT) was added, and the cells incubated on the plate shaker for 30 min. To terminate uptake, cells were transferred into 1.5 ml Eppendorf tubes, centrifuged at 5000 rpm for 5 min. The supernatant was aspirated, cells were washed with cold KHB, recentrifuged and lysed with 200 µl SDS. The solutions were transferred into vials containing 2 ml scintillation cocktail and radioactivity was determined via beta-scintillation counting (Perkin Elmer, Waltham, MA, USA). For analysis, inhibitory potency of test drugs was normalized to uptake inhibition caused by the potent VMAT inhibitor reserpine.

[3] = tested on: C57BL/6N mice; assay: Open-field test; type: in vivo; details: indicated doses (1, 5 and 10 mg kg-1) intraperitoneal, 1 h
Procedure: (§1) All in vivo experiments were performed in adult mice (>6 weeks old). For the photometry and microdialysis experiments, which were carried out in Florida, male C57BL/6J mice from The Jackson Laboratory (Bar Harbor, ME, USA) were group-housed in polycarbonate cages (GM500, Tecniplast, Buguggiate, Italy) with lights on from 7 a.m. to 7 p.m. Food and water were provided ad libitum. Photometry and microdialysis experiments were performed in accordance with a protocol approved by the Institutional Animal Care and Use Committee at Florida Atlantic University. For the behavioral experiments, which were carried out in Vienna, C57BL/6N mice from Charles River (Sulzfeld, Germany) were group-housed in polycarbonate cages with lights on from 7 a.m. to 7 p.m. Food and water were provided ad libitum. Behavioral experiments were performed in accordance with a protocol approved by the Austrian national ethical committee on animal care and use (Bundesministerium für Wissenschaft und Forschung: BMWFW-66.009/0016-WF/V/3b/2015). All animal procedures were conducted in agreement with the ARRIVE guidelines and the U.K. Animal (Scientific Procedures) Act, 1986, and associated guidelines, EU Directive 2010/63/EU for animal experiments. Mice were given at least 1 week to acclimate before being used in any experiments.
For behavioral assays, animals were assigned to treatment groups and injected with test drugs by an unblinded observer.
Mice were placed into an open field arena (27.3 × 27.3 × 27.3 cm) surrounded by infrared beams to track movements. The total distance traveled over 1 h was recorded using Activity Monitor (Med Associates Inc., St. Albans, VT, USA) and interpreted as a measure of the psychostimulant effects. Animal sample size was confirmed using a post hoc analysis of the achieved power using G*Power3.1 [29]. Using a significance level (α) of 0.05 and an effect size f = 1.92 and a sample size of 7.5 animals (5–10)/group we achieved the commonly accepted statistical power (1−β) of 0.8.

[4] = tested on: extracellular 5-HT and DA in the NAc; assay: In vivo microdialysis in the NAc of freely moving mice
Procedure: as §1
Mice were anesthetized with isoflurane (5% induction, 2% maintenance) and placed into a stereotaxic frame (Kopf Instruments, Tujunga, CA, USA) oriented in the flat skull position. Ophthalmic ointment was applied to prevent drying of the eyes. Ketoprofen (10 mg kg^−1) was administered subcutaneously (s.c.), whereas bupivacaine and lidocaine were administered locally (s.c.; 100 µl of sterile saline containing 0.05% bupivacaine and 0.2% lidocaine) to the surgical site atop the head. A midline incision was made through the skin on the dorsal surface of the head to expose the skull. Fascia was removed, coordinates for the NAc were determined relative to bregma: anterior/posterior = 1.54 mm; medial/lateral = 0.7 mm; dorsal/ventral = −4.1 mm. A 1 mm burr hole was drilled through the skull. […]
Microdialysis was performed based on a previous publication. […] Dialysate samples were collected on ice and stored at −80 °C until they were analyzed using high-performance liquid chromatography with electrochemical detection. Drug-induced changes in extracellular DA and 5-HT were expressed as fold change compared to basal monoamine levels obtained during the first three pretreatment samples.

[5] = 5 mg kg-1 with or without fluoxetine 10 mg kg-1, repeated measures two-way ANOVA

T1 sequence (P31645 whole entry): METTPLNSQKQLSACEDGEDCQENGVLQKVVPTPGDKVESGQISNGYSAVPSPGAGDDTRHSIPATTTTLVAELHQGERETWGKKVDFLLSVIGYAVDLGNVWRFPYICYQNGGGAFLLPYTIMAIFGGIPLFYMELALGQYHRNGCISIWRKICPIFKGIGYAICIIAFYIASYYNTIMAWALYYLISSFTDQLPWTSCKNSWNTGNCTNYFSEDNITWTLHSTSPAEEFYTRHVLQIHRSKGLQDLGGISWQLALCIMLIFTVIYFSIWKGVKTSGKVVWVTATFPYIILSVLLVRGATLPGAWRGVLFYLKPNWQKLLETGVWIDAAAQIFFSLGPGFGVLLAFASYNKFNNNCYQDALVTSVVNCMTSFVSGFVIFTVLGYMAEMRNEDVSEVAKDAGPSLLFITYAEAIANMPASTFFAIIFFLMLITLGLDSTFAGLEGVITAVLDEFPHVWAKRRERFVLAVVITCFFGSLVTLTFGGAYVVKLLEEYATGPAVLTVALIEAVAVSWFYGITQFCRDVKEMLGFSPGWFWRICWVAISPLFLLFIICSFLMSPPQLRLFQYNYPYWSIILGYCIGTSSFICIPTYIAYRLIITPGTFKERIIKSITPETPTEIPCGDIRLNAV

Compound	pIC50 [1]	inhibition of VMAT-mediated transport compared to MDMA [2]	horizontal locomotor activity (total distance traveled) in the open field test [3]	dialysate 5-HT versus baseline ([4]; 5 mg kg-1 intraperitoneal, NAc)	effect of drug treatment (alone versus plus fluoxetine) on dialysate 5-HT [4, 5]	effect of drug treatment (alone versus plus fluoxetine) on dialysate DA [4, 5]	dialysate 5-HT with co-administered fluoxetine ([4]; 10 mg kg-1 intraperitoneal plus fluoxetine 10 mg kg-1)
Cc1ccc(C(=O)[C@H](C)N)cc1 [S-4-MC, 4-methylcathinone]	4.90	significantly less effective	did not differ from vehicle	significantly elevated 5-HT in the dialysate	drug-treatment significantly affected 5-HT in the dialysate	but not DA	
CN[C@@H](C)C(=O)c1ccc(C(F)(F)F)cc1 [S-4-TFMMC, 4-trifluoromethyl-N-methylcathinone]	4.99	significantly less effective	did not differ from vehicle				fluoxetine markedly blunted the amount of dialysate 5-HT
